Tested on: MV-4-11 cells
Experiment: Gene expression microarray analysis (Affymetrix PrimeView) and GSEA
Type: cell-based, human
Parameters: RFU PODN (11730768_x_at) / Fold change /veh PODN (11730768_x_at) / RFU LINC00158 (11744669_a_at) / Fold change /veh LINC00158 (11744669_a_at) / RFU DUSP10 (11751237_a_at) / Fold change /veh DUSP10 (11751237_a_at) / RFU ID3 (11757404_x_at) / Fold change /veh ID3 (11757404_x_at) / RFU PLEKHG5 (11737974_s_at) / Fold change /veh PLEKHG5 (11737974_s_at) / RFU LRRC4B (11730491_at) / Fold change /veh LRRC4B (11730491_at) / RFU GIMAP4 (11747438_a_at) / Fold change /veh GIMAP4 (11747438_a_at) / RFU KRT8 (11758183_x_at) / Fold change /veh KRT8 (11758183_x_at) / RFU CNN1 (11734310_a_at) / Fold change /veh CNN1 (11734310_a_at) / RFU VPS37D (11726825_at) / Fold change /veh VPS37D (11726825_at) / RFU C10orf10 (11716522_x_at) / Fold change /veh C10orf10 (11716522_x_at) / RFU KIR2DL2 /// KIR2DL4 /// KIR2DL5A /// KIR2DL5B /// KIR2DS1 /// KIR2DS2 /// KIR2DS3 /// KIR2DS4 /// KIR3DL3 /// KIR3DL3 /// KIR3DS1 (11738374_at) / Fold change /veh KIR2DL2 /// KIR2DL4 /// KIR2DL5A /// KIR2DL5B /// KIR2DS1 /// KIR2DS2 /// KIR2DS3 /// KIR2DS4 /// KIR3DL3 /// KIR3DL3 /// KIR3DS1 (11738374_at) / RFU C1QL1 (11718748_at) / Fold change /veh C1QL1 (11718748_at) / RFU TMPRSS4 (11747572_a_at) / Fold change /veh TMPRSS4 (11747572_a_at) / RFU HAMP (11756126_x_at) / Fold change /veh HAMP (11756126_x_at) / RFU RNFT2 (11725882_a_at) / Fold change /veh RNFT2 (11725882_a_at) / RFU NR4A2 (11747474_a_at) / Fold change /veh NR4A2 (11747474_a_at) / RFU ABCC12 (11746883_a_at) / Fold change /veh ABCC12 (11746883_a_at) / RFU TMEM136 (11760407_x_at) / Fold change /veh TMEM136 (11760407_x_at) / RFU CLDN22 /// WWC2 (11732394_at) / Fold change /veh CLDN22 /// WWC2 (11732394_at) / RFU HLA-DPB1 (11760878_x_at) / Fold change /veh HLA-DPB1 (11760878_x_at) / RFU SPINT1 (11716480_a_at) / Fold change /veh SPINT1 (11716480_a_at) / RFU GAP43 (11754022_s_at) / Fold change /veh GAP43 (11754022_s_at) / RFU A4GNT (11735810_at) / Fold change /veh A4GNT (11735810_at) / RFU PRB3 (11715151_x_at) / Fold change /veh PRB3 (11715151_x_at) / RFU TUBB4B (11761932_at) / Fold change /veh TUBB4B (11761932_at) / RFU CAPN14 (11732068_a_at) / Fold change /veh CAPN14 (11732068_a_at) / RFU TMCC2 (11721928_a_at) / Fold change /veh TMCC2 (11721928_a_at) / RFU IRGQ (11745062_a_at) / Fold change /veh IRGQ (11745062_a_at) / RFU FAM174B (11720279_a_at) / Fold change /veh FAM174B (11720279_a_at) / RFU TMPRSS4 (11748680_a_at) / Fold change /veh TMPRSS4 (11748680_a_at) / RFU FAM212B (11763350_a_at) / Fold change /veh FAM212B (11763350_a_at) / RFU PLEKHG5 (11743358_a_at) / Fold change /veh PLEKHG5 (11743358_a_at) / RFU ZSCAN30 (11745921_a_at) / Fold change /veh ZSCAN30 (11745921_a_at) / RFU CMKLR1 (11741424_a_at) / Fold change /veh CMKLR1 (11741424_a_at) / RFU LOC101060620 /// MAPK8IP1 (11723275_at) / Fold change /veh LOC101060620 /// MAPK8IP1 (11723275_at) / RFU SPTSSB (11747773_x_at) / Fold change /veh SPTSSB (11747773_x_at) / RFU PRSS12 (11739890_at) / Fold change /veh PRSS12 (11739890_at) / RFU BIN1 (11741810_x_at) / Fold change /veh BIN1 (11741810_x_at) / RFU WNT11 (11732464_a_at) / Fold change /veh WNT11 (11732464_a_at) / RFU C10orf10 (11716521_a_at) / Fold change /veh C10orf10 (11716521_a_at) / RFU C5orf56 (11738089_at) / Fold change /veh C5orf56 (11738089_at) / RFU CYB561 (11721691_x_at) / Fold change /veh CYB561 (11721691_x_at) / RFU ANKRD19P (11752326_a_at) / Fold change /veh ANKRD19P (11752326_a_at) / RFU OR2T12 /// OR2T33 /// OR2T8 (11738714_s_at) / Fold change /veh OR2T12 /// OR2T33 /// OR2T8 (11738714_s_at) / RFU VCAN (11748164_a_at) / Fold change /veh VCAN (11748164_a_at) / RFU JSRP1 (11732532_at) / Fold change /veh JSRP1 (11732532_at) / RFU KRTAP10-11 (11738290_x_at) / Fold change /veh KRTAP10-11 (11738290_x_at) / RFU MYO3A (11730013_a_at) / Fold change /veh MYO3A (11730013_a_at) / RFU EBF3 (11725865_a_at) / Fold change /veh EBF3 (11725865_a_at) / RFU CAMK2N1 (11719241_x_at) / Fold change /veh CAMK2N1 (11719241_x_at) / RFU C5orf56 (11738088_a_at) / Fold change /veh C5orf56 (11738088_a_at) / RFU OLFML3 (11715873_a_at) / Fold change /veh OLFML3 (11715873_a_at) / RFU LOC100653217 /// NTM (11731650_a_at) / Fold change /veh LOC100653217 /// NTM (11731650_a_at) / RFU MAPK11 (11762145_a_at) / Fold change /veh MAPK11 (11762145_a_at) / RFU FIZ1 (11724087_x_at) / Fold change /veh FIZ1 (11724087_x_at) / RFU OASL (11726364_x_at) / Fold change /veh OASL (11726364_x_at) / RFU SOX15 (11748057_x_at) / Fold change /veh SOX15 (11748057_x_at) / RFU CD79A (11719716_a_at) / Fold change /veh CD79A (11719716_a_at) / RFU HIST1H1D (11736915_at) / Fold change /veh HIST1H1D (11736915_at) / RFU CASKIN2 (11723855_a_at) / Fold change /veh CASKIN2 (11723855_a_at) / RFU LOC730098 (11760151_x_at) / Fold change /veh LOC730098 (11760151_x_at) / RFU OR4N2 (11742367_at) / Fold change /veh OR4N2 (11742367_at) / RFU PRRT2 (11749266_a_at) / Fold change /veh PRRT2 (11749266_a_at) / RFU SNX32 (11753110_a_at) / Fold change /veh SNX32 (11753110_a_at) / RFU CDHR5 (11726645_a_at) / Fold change /veh CDHR5 (11726645_a_at) / RFU RCAN1 (11760418_a_at) / Fold change /veh RCAN1 (11760418_a_at) / RFU FAM167A (11723789_a_at) / Fold change /veh FAM167A (11723789_a_at) / RFU FAM26E (11764081_at) / Fold change /veh FAM26E (11764081_at) / RFU ISYNA1 (11749810_s_at) / Fold change /veh ISYNA1 (11749810_s_at) / RFU ACY1 (11761880_at) / Fold change /veh ACY1 (11761880_at) / RFU 11764098_at / Fold change /veh 11764098_at / RFU SAMD14 (11745864_x_at) / Fold change /veh SAMD14 (11745864_x_at) / RFU NPB (11741838_a_at) / Fold change /veh NPB (11741838_a_at) / RFU TMPRSS6 (11731388_a_at) / Fold change /veh TMPRSS6 (11731388_a_at) / RFU KRTAP10-2 (11738614_at) / Fold change /veh KRTAP10-2 (11738614_at) / RFU ARHGAP8 /// PRR5-ARHGAP8 (11727945_x_at) / Fold change /veh ARHGAP8 /// PRR5-ARHGAP8 (11727945_x_at) / RFU KRTAP5-7 /// NADSYN1 (11734609_at) / Fold change /veh KRTAP5-7 /// NADSYN1 (11734609_at) / RFU RASL12 (11751679_a_at) / Fold change /veh RASL12 (11751679_a_at) / RFU CDKN2B (11736163_a_at) / Fold change /veh CDKN2B (11736163_a_at) / RFU PRF1 (11729649_at) / Fold change /veh PRF1 (11729649_at) / RFU, ZNF638 /// ZNF638-IT1 / Fold change vs veh, ZNF638 /// ZNF638-IT1 / RFU, PANK3 / Fold change vs veh, PANK3 / RFU, SH3YL1 / Fold change vs veh, SH3YL1 / RFU, ZEB2 / Fold change vs veh, ZEB2 / RFU, NRIP1 / Fold change vs veh, NRIP1 / RFU, PTTG1IP / Fold change vs veh, PTTG1IP / RFU, CAPN2 / Fold change vs veh, CAPN2 / RFU, MED14 / Fold change vs veh, MED14 / RFU, SNORA58 / Fold change vs veh, SNORA58 / RFU, C1orf63 / Fold change vs veh, C1orf63 / RFU, LRRFIP1 / Fold change vs veh, LRRFIP1 / RFU, NDUFAF7 / Fold change vs veh, NDUFAF7 / RFU, SLC12A2 / Fold change vs veh, SLC12A2 / RFU, IBTK / Fold change vs veh, IBTK / RFU, ESF1 / Fold change vs veh, ESF1 / Fold change vs veh, TMEM50B / RFU, TAOK1 / Fold change vs veh, TAOK1 / RFU, ACBD3 / Fold change vs veh, ACBD3 / RFU, TMA16 / Fold change vs veh, TMA16 / RFU, RWDD3 / Fold change vs veh, RWDD3 / RFU, BCAT1 / Fold change vs veh, BCAT1 / RFU, EDEM3 / Fold change vs veh, EDEM3 / RFU, TMEM33 / Fold change vs veh, TMEM33 / RFU, WDR75 / Fold change vs veh, WDR75 / RFU, AHCTF1 / Fold change vs veh, AHCTF1 / RFU, TFRC / Fold change vs veh, TFRC / RFU, ZDHHC17 / Fold change vs veh, ZDHHC17 / RFU, NOM1 / Fold change vs veh, NOM1 / RFU, ARL8B / Fold change vs veh, ARL8B / RFU, ZBTB11 / Fold change vs veh, ZBTB11 / RFU, TAMM41 / Fold change vs veh, TAMM41 / RFU, KIAA1704 /// LOC100996395 / Fold change vs veh, KIAA1704 /// LOC100996395 / RFU, ING1 / Fold change vs veh, ING1 / RFU, TRMT61B / Fold change vs veh, TRMT61B / RFU, FUBP3 / Fold change vs veh, FUBP3 / RFU, TP53 / Fold change vs veh, TP53 / RFU, TNKS2 / Fold change vs veh, TNKS2 / RFU, ZFP14 / Fold change vs veh, ZFP14 / RFU, ACTR2 / Fold change vs veh, ACTR2 / RFU, PPP3R1 / Fold change vs veh, PPP3R1 / RFU, PIK3R1 / Fold change vs veh, PIK3R1 / RFU, HNRNPA1 / Fold change vs veh, HNRNPA1 / RFU, RNF170 / Fold change vs veh, RNF170 / RFU, ZNF28 / Fold change vs veh, ZNF28 / RFU, RNGTT / Fold change vs veh, RNGTT / RFU, OGT / Fold change vs veh, OGT / RFU, BRD1 / Fold change vs veh, BRD1 / RFU, MARS / Fold change vs veh, MARS / RFU, ZNF655 / Fold change vs veh, ZNF655 / RFU, FAHD1 / Fold change vs veh, FAHD1 / RFU, BDP1 / Fold change vs veh, BDP1 / RFU, LRRCC1 / Fold change vs veh, LRRCC1 / RFU, ARID1A / Fold change vs veh, ARID1A / RFU, ZNF146 / Fold change vs veh, ZNF146 / RFU, ZNF330 / Fold change vs veh, ZNF330 / RFU, GPN3 / Fold change vs veh, GPN3 / RFU, C9orf123 / Fold change vs veh, C9orf123 / RFU, N4BP2L2 / Fold change vs veh, N4BP2L2 / RFU, ARFIP1 / Fold change vs veh, ARFIP1 / RFU, FAM179B / Fold change vs veh, FAM179B / RFU, BCL10 / Fold change vs veh, BCL10 / RFU, UHRF1BP1L / Fold change vs veh, UHRF1BP1L / RFU, BET1 / Fold change vs veh, BET1 / RFU, CNOT2 / Fold change vs veh, CNOT2 / RFU, ZNF268 / Fold change vs veh, ZNF268 / Fold change vs veh, ZNF507 / RFU, DGCR2 / Fold change vs veh, DGCR2 / RFU, WDSUB1 / Fold change vs veh, WDSUB1 / Fold change vs veh, HSP90B1 /// MIR3652 / RFU, ADSS / Fold change vs veh, ADSS / RFU, GK / Fold change vs veh, GK / RFU, ZNF148 / Fold change vs veh, ZNF148 / RFU, TAF9 / Fold change vs veh, TAF9 / RFU, SLC1A5 / Fold change vs veh, SLC1A5 / RFU, SLMO2 / Fold change vs veh, SLMO2 / RFU, ABCC4 / Fold change vs veh, ABCC4 / RFU, LOC101060439 /// RAP1B / Fold change vs veh, LOC101060439 /// RAP1B / RFU, RFX7 / Fold change vs veh, RFX7 / RFU, GTPBP10 / Fold change vs veh, GTPBP10 / RFU, CNEP1R1 / Fold change vs veh, CNEP1R1 / RFU, BIVM-ERCC5 /// ERCC5 / Fold change vs veh, BIVM-ERCC5 /// ERCC5 / RFU, ILF3 / Fold change vs veh, ILF3 / RFU 11762660_at / Fold change /veh 11762660_at / RFU VCAN (11757783_s_at) / Fold change /veh VCAN (11757783_s_at) / RFU DDX43 (11728927_at) / Fold change /veh DDX43 (11728927_at) / RFU KRT8 (11758188_x_at) / Fold change /veh KRT8 (11758188_x_at) / RFU NKD1 (11759106_at) / Fold change /veh NKD1 (11759106_at) / RFU SRD5A1 (11742802_a_at) / Fold change /veh SRD5A1 (11742802_a_at) / RFU TPSAB1 /// TPSB2 (11721975_s_at) / Fold change /veh TPSAB1 /// TPSB2 (11721975_s_at) / RFU GSTM3 (11746129_a_at) / Fold change /veh GSTM3 (11746129_a_at) / RFU IL23R (11737362_x_at) / Fold change /veh IL23R (11737362_x_at) / RFU TMEM51 (11727254_a_at) / Fold change /veh TMEM51 (11727254_a_at) / RFU PIWIL2 (11732686_x_at) / Fold change /veh PIWIL2 (11732686_x_at) / RFU ORM1 (11744905_x_at) / Fold change /veh ORM1 (11744905_x_at) / RFU CCDC152 (11743942_at) / Fold change /veh CCDC152 (11743942_at) / RFU ECM1 (11717891_a_at) / Fold change /veh ECM1 (11717891_a_at) / RFU IL23R (11748794_a_at) / Fold change /veh IL23R (11748794_a_at) / RFU TNFAIP8L3 (11732012_x_at) / Fold change /veh TNFAIP8L3 (11732012_x_at) / RFU MBOAT4 (11741988_at) / Fold change /veh MBOAT4 (11741988_at) / RFU 11764193_at / Fold change /veh 11764193_at / RFU TMEM53 (11763286_at) / Fold change /veh TMEM53 (11763286_at) / RFU MAGEB2 (11727129_at) / Fold change /veh MAGEB2 (11727129_at) / RFU TMEM200A (11744735_a_at) / Fold change /veh TMEM200A (11744735_a_at) / RFU CCDC152 (11751479_a_at) / Fold change /veh CCDC152 (11751479_a_at) / RFU FAM211A (11726209_a_at) / Fold change /veh FAM211A (11726209_a_at) / RFU RGS16 (11746705_a_at) / Fold change /veh RGS16 (11746705_a_at) / RFU VCAN (11755009_s_at) / Fold change /veh VCAN (11755009_s_at) / RFU RHOB (11743442_s_at) / Fold change /veh RHOB (11743442_s_at) / RFU RGS16 (11720943_a_at) / Fold change /veh RGS16 (11720943_a_at) / RFU RGS16 (11720944_at) / Fold change /veh RGS16 (11720944_at) / RFU, VPS4B / Fold change vs veh, VPS4B / RFU, CREB1 / Fold change vs veh, CREB1 / RFU, DNAJC13 / Fold change vs veh, DNAJC13 / RFU, GNAQ / Fold change vs veh, GNAQ / RFU, CDK5R1 / Fold change vs veh, CDK5R1 / RFU, ZRANB3 / Fold change vs veh, ZRANB3 / RFU, CUL4A / Fold change vs veh, CUL4A / RFU, CCNY / Fold change vs veh, CCNY / RFU, UFL1 / Fold change vs veh, UFL1 / RFU, COG3 / Fold change vs veh, COG3 / RFU, DIAPH2 / Fold change vs veh, DIAPH2 / RFU, SKA2 / Fold change vs veh, SKA2 / RFU, AFF3 / Fold change vs veh, AFF3 / RFU, LMF1 / Fold change vs veh, LMF1 / RFU, IPO11 / Fold change vs veh, IPO11 / RFU, DFFB / Fold change vs veh, DFFB / RFU, FOXP1 / Fold change vs veh, FOXP1 / RFU, CARD8 / Fold change vs veh, CARD8 / RFU, STRN3 / Fold change vs veh, STRN3 / RFU, ADK / Fold change vs veh, ADK / RFU, RASSF2 / Fold change vs veh, RASSF2 / RFU, WIPF1 / Fold change vs veh, WIPF1 / RFU, LARP1B / Fold change vs veh, LARP1B / RFU, RASA1 / Fold change vs veh, RASA1 / RFU, RB1 / Fold change vs veh, RB1 / RFU, PPFIA1 / Fold change vs veh, PPFIA1 / RFU, MAT2A / Fold change vs veh, MAT2A / RFU, CCT5 / Fold change vs veh, CCT5 / RFU, WDR92 / Fold change vs veh, WDR92 / RFU, CUX1 / Fold change vs veh, CUX1 / RFU, TTC7A / Fold change vs veh, TTC7A / RFU, TMEM135 / Fold change vs veh, TMEM135 / RFU, DEPTOR / Fold change vs veh, DEPTOR / RFU, CPM / Fold change vs veh, CPM / RFU, DNAJB6 / Fold change vs veh, DNAJB6 / RFU, CACNA2D3 / Fold change vs veh, CACNA2D3 / RFU, DTX4 / Fold change vs veh, DTX4 / RFU, TFCP2 / Fold change vs veh, TFCP2 / RFU, GMCL1 /// GMCL1P1 / Fold change vs veh, GMCL1 /// GMCL1P1 / RFU, AEBP2 / Fold change vs veh, AEBP2 / RFU, SNHG1 /// SNORD22 /// SNORD25 /// SNORD26 /// SNORD27 /// SNORD28 /// SNORD29 /// SNORD31 / Fold change vs veh, SNHG1 /// SNORD22 /// SNORD25 /// SNORD26 /// SNORD27 /// SNORD28 /// SNORD29 /// SNORD31 / Fold change (Aza/veh), C12orf56 (ProbeSet 11735607_a_at) / Fold change (ACY-1035/veh), C12orf56 (ProbeSet 11735607_a_at) / Fold change (Aza/veh), FGFR1OP (ProbeSet 11751329_s_at) / Fold change (ACY-1035/veh), FGFR1OP (ProbeSet 11751329_s_at) / Fold change (Aza/veh), VPS36 (ProbeSet 11739960_a_at) / Fold change (ACY-1035/veh), VPS36 (ProbeSet 11739960_a_at) / RFU SYPL1 (11715823_x_at) / Fold change /veh SYPL1 (11715823_x_at) / RFU IGFBP7 (11715501_s_at) / Fold change /veh IGFBP7 (11715501_s_at) / RFU REEP3 (11722064_at) / Fold change /veh REEP3 (11722064_at) / RFU IGLL1 (11728026_x_at) / Fold change /veh IGLL1 (11728026_x_at): dose or concentration left out as unconfirmed
Details: ProbeSet 11743567_s_at; LIST B

Nc1ccc(-c2cccs2)cc1NC(=O)c1ccc2c(c1)cc(C1CC1)n2CCN1CCOCC1 [ACY-1035]
Fold change vs veh, ACBD3: 0.99

Source: paper PMC5218480 (PLoS ONE, 2017)
